Where a name gives a salt, the structure may show the parent alone. Read-outs that look alike come from different tables or passages of the source.
Tests used:
[1] = system: Escherichia coli K12; assay: Antimicrobial activity, microdilution MIC, E. coli; type: cell-based; conditions: for MIC: Escherichia coli, K12, 24 h
Description: (§1) The antimicrobial potential of the tested agents was evaluated against two reference strains of bacteria: Staphylococcus aureus ATCC 25923 and Escherichia coli K12, two reference strains of pathogenic yeasts, Candida albicans ATCC10231 and Candida glabrata DSMZ11226, as well as 20 strains of clinical isolates of S. aureus collected from patients with skin and soft tissue infections (n = 8) and strains derived from subclinical bovine mastitis milk samples (n = 12). Four of these strains, two isolated from human infections and two isolated from bovine mastitis, were classified as MRSA (Methicillin-resistant Staphylococcus aureus). All of them were mecA positive and their methicillin resistance was confirmed with the disc diffusion assay. The remaining 16 strains were MSSA (Methicillin-sensitive Staphylococcus aureus). The assays were performed using a serial, two-fold dilution method in 96-well microtiter plates under conditions recommended by the Clinical and Laboratory Standards Institute (CLSI, Pittsburgh, PA, USA). The aim of this procedure was the determination of the MIC parameter (Minimum Inhibitory Concentration)—the minimum concentration of a tested agent capable to inhibit the growth of a specified strain of microorganism. The agents were solubilized in deionized, sterile water to a final concentration of […]. Subsequently, solutions were mixed (1:1 (v/v)) with 2 × concentrated liquid medium, Mueller-Hinton Broth 2—cation adjusted (MHB2) for evaluation of antibacterial activity and RPMI in the case of evaluation of the antifungal activity. […] Subsequently, the solutions were mixed with MHB2 or RPMI medium to get the final concentration of 8.192 mg/mL (8192 µg/mL). In the next step, the serial, two-fold dilutions of the tested agents (over the range of concentrations from 8192 to 8 µg/mL for reference strains of bacteria and yeasts and from 512 to 1.0 µg/mL for clinical isolates of S. aureus) were prepared in 96-well microtitration plates in the final volume of 100 μL of the appropriate medium.
(§2) The pure bacterial cultures of (both the reference and clinical strains) were grown on the Mueller-Hinton Agar (MHA) for 18–24 h at 37 °C. A small amount of the biomass of the culture of each strain of microorganisms was suspended in the sterile PBS (phosphate buffered saline, pH 7.4 at 25 °C, purchased from Sigma) solution to get an optical density OD600 = 0.13 (equal to the cells concentration approximately 1 × 10^8 CFU/mL). The obtained suspensions of the cells were next diluted 1:100 (v/v) in the MHB2 medium. One hundred µL of the cells’ suspension was finally loaded into the wells of plates prepared in advance, which contained 100 µL of two-fold dilutions of the tested agents (the final concentration of the bacterial cells in all wells was approximately 5 × 10^5 CFU/mL).
(§3) The pure cultures of yeast strains were grown on the Sabouraud Dextrose Agar (SDA) for 18–24 h at 37 °C. Suspensions of the microorganisms were prepared by taking one loop of pure culture into sterile water and adjusting optical density to 0.1 at 660 nm and further 50-fold dilution in RPMI 1640 medium resulting in cells concentration of approximate 2 × 10^4 CFU/mL. One hundred μL of that suspension was inoculated to the wells of the microtitration plate containing appropriate dilutions of the agents. The positive growth control of each strain (both bacteria and yeasts) was performed in the wells without the tested substances. The negative control containing only the media was included in each assay. Microtiter plates were incubated at 37 °C for 24 h. Following the incubation period, determination of the MIC values of the tested agents was carried out by measuring the absorbance at 531 nm using a Victor^3 microplate reader (Perkin Elmer, Inc., Waltham, MA, USA). The lowest concentration of the agent causing inhibition of growth equal to or higher than 90% (MIC90) of growth control was taken as the MIC value. Each test was repeated three times. […]

[2] = system: human keratinocytes (HaCaT cell line); assay: Cytotoxicity, MTT assay; type: cell-based; conditions: Homo sapiens, HaCaT, read-out: HaCaT IC50
Description: To assess the cytotoxicity of QAS (IC50), the MTT assay on 96-well polystyrene plates was performed for human keratinocytes (HaCaT, Elabscience Biotechnology Inc., Houston, Texas, USA). The assay utilizes colorimetric determination of the cell metabolic activity and the color intensity reflects the number of live cells that can be measured spectrophotometrically. The cell line was cultured in a Dulbecco’s modified Eagle Medium (Invitrogen) supplemented with 10% fetal bovine serum (Sigma Aldrich) (v/v), 100 units/mL of penicillin, 100 μg/mL of streptomycin, and 2 mM L-glutamine and was stored at 37 °C in a humidified 5% CO2 incubator. Briefly, a day after plating of 500 cells per well, a series of concentrations (0.5–200 μg/mL) of the test compounds was applied. DMSO was added to the control cells at a final concentration of 1.0% (v/v), which was related to the maximal concentration of the solvent compounds used in the experiment. After 24 h of incubation with the QAS at 37 °C (humidified 5% CO2 incubator), a medium containing 1 mg/mL of MTT (3-(4,5-dimethylthiazol-2-yl)-2,5-diphenyltetrazolium bromide) was added to the wells up to a final concentration of 0.5 mg/mL. Subsequently, the plates were incubated at 37 °C for 4 h. Then, the medium was removed by suction, and the formazan product was solubilized with DMSO. The background absorbance at 630 nm was subtracted from that at 570 nm for each well (Epoch, BioTek Instruments, Winooski, VT, USA). Six replicates were conducted for each concentration. All experiments were repeated at least twice and the resulting IC50 values were calculated with GraFit 7 software (v. 7.0, Erithacus, Berkley, CA, USA).

[3] = system: Candida glabrata DSMZ 11226; assay: Antimicrobial activity, microdilution MIC, C. glabrata; type: cell-based; conditions: for MIC: Nakaseomyces glabratus, DSMZ11226, 24 h
Description: as §1
(§4) The pure cultures of yeast strains were grown on the Sabouraud Dextrose Agar (SDA) for 18–24 h at 37 °C. Suspensions of the microorganisms were prepared by taking one loop of pure culture into sterile water and adjusting optical density to 0.1 at 660 nm and further 50-fold dilution in RPMI 1640 medium resulting in cells concentration of approximate 2 × 10^4 CFU/mL. One hundred μL of that suspension was inoculated to the wells of the microtitration plate containing appropriate dilutions of the agents. The positive growth control of each strain (both bacteria and yeasts) was performed in the wells without the tested substances. The negative control containing only the media was included in each assay. Microtiter plates were incubated at 37 °C for 24 h. Following the incubation period, determination of the MIC values of the tested agents was carried out by measuring the absorbance at 531 nm using a Victor^3 microplate reader (Perkin Elmer, Inc., Waltham, MA, USA). The lowest concentration of the agent causing inhibition of growth equal to or higher than 90% (MIC90) of growth control was taken as the MIC value. Each test was repeated three times.

[4] = system: Staphylococcus aureus ATCC 25923; assay: Antimicrobial activity, microdilution MIC, S. aureus reference strain; type: cell-based; conditions: for MIC: Staphylococcus aureus, ATCC25923, 24 h
Description: as §1, §2, §3

[5] = system: Candida albicans ATCC 10231; assay: Antimicrobial activity, microdilution MIC, C. albicans; type: cell-based; conditions: for MIC: Candida albicans, ATCC10231, 24 h
Description: as §1, §4

[6] = system: Salmonella typhimurium TA98 strain; conditions: TA98, no metabolic activation
Description: A Salmonella mutagenicity test was performed with Salmonella typhimurium TA98 strain (Xenometrics AG, Allschwil, Switzerland) without metabolic activation, following the procedure by Mortelmans and Zeiger [52], with modifications reported Golunski et al. [53] […] Subsequently, the mixture was centrifuged, bacterial pellet washed with 0.75% NaCl and resuspended in 300 µL of 0.75% NaCl solution containing 0.1 µmol each of histidine and biotin, and it was then spread on a glucose minimal (GM) plate. […] All experiments were performed in triplicate. The anticancer drug doxorubicin at 90 ng/plate with known mutagenic effect towards S. typhimurium TA98 was used as a positive control.

[7] = Solubility observed during assays; type: physicochemical; conditions: observed during antimicrobial assays; DMSO used for solubilisation
[8] = MIC90, 24 h, MHB2, read-out: MIC E. coli K12
[9] = MIC90, 24 h, RPMI, read-out: MIC C. glabrata DSMZ 11226
[10] = MIC90, 24 h, MHB2, read-out: MIC S. aureus ATCC 25923
[11] = MIC90, 24 h, RPMI, read-out: MIC C. albicans ATCC 10231
[12] = read-out: MIC E. coli K12, MIC90, 24 h, MHB2
[13] = read-out: MIC C. glabrata DSMZ 11226, MIC90, 24 h, RPMI
[14] = read-out: MIC S. aureus ATCC 25923, MIC90, 24 h, MHB2
[15] = read-out: MIC C. albicans ATCC 10231, MIC90, 24 h, RPMI

| SMILES | MIC [1, 8] [µg/mL] | MIC E. coli K12 ([1]; MIC90, 24 h, MHB2) [µg/mL] | IC50 ([2]; MTT, 24 h incubation) [µg/mL] | MIC C. glabrata DSMZ 11226 ([3]; MIC90, 24 h, RPMI) [µg/mL] | MIC [3, 9] [µg/mL] | MIC S. aureus ATCC 25923 ([4]; MIC90, 24 h, MHB2) [µg/mL] | MIC [4, 10] [µg/mL] | MIC [5, 11] [µg/mL] | MIC C. albicans ATCC 10231 ([5]; MIC90, 24 h, RPMI) [µg/mL] | Number of Revertants ([6]; concentration 4 µg/plate) | Number of Revertants ([6]; concentration 20 µg/plate) | Number of Revertants ([6]; concentration 100 µg/plate) | Number of Revertants ([6]; concentration 500 µg/plate) | Number of Revertants ([6]; concentration 2000 µg/plate) | also measured |
| --- | --- | --- | --- | --- | --- | --- | --- | --- | --- | --- | --- | --- | --- | --- | --- |
| c1cc[n+](C2COC3C2OCC3[n+]2ccccc2)cc1 (stereo not shown) [QAS 3] | > 4000 | >4096 | > 100 | >4096 | > 4000 | >4096 | > 4000 | > 4000 | >4096 | 7.3 ± 2.5 | 11.0 ± 1.0 | 10.6 ± 2.1 | 8.7 ± 1.5 | 7.3 ± 2.5 | – |
| CN(C)c1cc[n+](C2COC3C2OCC3[n+]2ccc(N(C)C)cc2)cc1 (stereo not shown) [QAS 4] | > 4000 | >4096 | > 100 | >4096 | > 4000 | >4096 | > 4000 | > 4000 | >4096 | 8.3 ± 0.6 | 9.7 ± 1.5 | 10.0 ± 2.6 | 7.0 ± 3.5 | 6.0 ± 2.6 | – |
| CCCCCC[N+](C)(C)C1COC2C1OCC2[N+](C)(C)CCCCCC (as salt: methanesulfonate) [QAS 8, N,N’-(1,4:3,6-Dianhydro-2,5-dideoxy-L-iditol-2,5-diyl)-bis(N,N-dimethyl-N-hexylammonium) Ditrifluoromethanesulfonate] | – | – | – | – | – | – | – | – | – | – | – | – | – | – | melting point: 222.8 to 224 °C |
| Cn1cc[n+](C2COC3C2OCC3[n+]2ccn(C)c2)c1 [QAS 6, N,N’-(1,4:3,6-Dianhydro-2,5-dideoxy-L-iditol-2,5-diyl)-bis(N-methylimidazolium) Ditrifluoromethanesulfonate] | > 4000 | >4096 | > 100 | >4096 | > 4000 | >4096 | > 4000 | > 4000 | >4096 | 13.3 ± 3.2 | 10.0 ± 2.0 | 9.0 ± 3.6 | 16.0 ± 6.2 | 13.7 ± 2.9 | – |
| CCCCCC[N+](C)(C)C1COC2C1OCC2[N+](C)(C)CCCCCC [QAS 8, N,N’-(1,4:3,6-Dianhydro-2,5-dideoxy-L-iditol-2,5-diyl)-bis(N,N-dimethyl-N-hexylammonium) Ditrifluoromethanesulfonate] | – | >4096 | – | 2048 | – | 2048 | – | – | – | 14.7 ± 5.1 | 15.7 ± 1.5 | 11.0 ± 7.5 | 12.3 ± 3.5 | 12.7 ± 3.2 | Solubility in water [7]: lower solubility in water; MIC [1, 12]: > 4000 µg/mL; IC50 ([2]; 24 h): > 100 µg/mL; MIC [3, 13]: > 4000 µg/mL; MIC [4, 14]: > 4000 µg/mL; MIC [5, 15]: > 4000 µg/mL |
| NC(=O)c1ccc[n+](C2COC3C2OCC3[n+]2cccc(C(N)=O)c2)c1 [QAS 5, N,N’-(1,4:3,6-Dianhydro-2,5-dideoxy-L-iditol-2,5-diyl)-bis[(3-carboxamide)pyridinium] Ditrifluoromethanesulfonate] | > 4000 | >4096 | > 100 | >4096 | > 4000 | >4096 | > 4000 | > 4000 | >4096 | 14.3 ± 5.5 | 8.0 ± 3.5 | 12.0 ± 2.0 | 12.7 ± 2.5 | 11.0 ± 1.7 | – |
| C[N+](C)(C)C1COC2C1OCC2[N+](C)(C)C (stereo not shown) [QAS 7] | – | >4096 | – | >4096 | – | >4096 | – | – | >4096 | 11.0 ± 3.0 | 10.7 ± 4.9 | 11.3 ± 3.5 | 13.7 ± 1.5 | 11.3 ± 3.2 | MIC [1, 12]: > 4000 µg/mL; IC50 ([2]; 24 h): > 100 µg/mL; MIC [3, 13]: > 4000 µg/mL; MIC [4, 14]: > 4000 µg/mL; MIC [5, 15]: > 4000 µg/mL |
